Among the data in patent US5552402A, “Five-membered heteroaromatic compounds as 5-HT receptor agonists” (Merck, Sharp & Dohme Ltd., priority 1994, dated 1996) are EC50 values, retold here.

Structures are written as SMILES. Counter-ions that a name gives are not always drawn.

In this assay the target is T1, 5-HT1 -like receptor (Oryctolagus cuniculus, UniProt P49144).
T1 construct: contraction of the saphenous vein of New Zealand White rabbits; from tissue; host or cells: saphenous vein of New Zealand White rabbits
T1 sequence (P49144 whole entry): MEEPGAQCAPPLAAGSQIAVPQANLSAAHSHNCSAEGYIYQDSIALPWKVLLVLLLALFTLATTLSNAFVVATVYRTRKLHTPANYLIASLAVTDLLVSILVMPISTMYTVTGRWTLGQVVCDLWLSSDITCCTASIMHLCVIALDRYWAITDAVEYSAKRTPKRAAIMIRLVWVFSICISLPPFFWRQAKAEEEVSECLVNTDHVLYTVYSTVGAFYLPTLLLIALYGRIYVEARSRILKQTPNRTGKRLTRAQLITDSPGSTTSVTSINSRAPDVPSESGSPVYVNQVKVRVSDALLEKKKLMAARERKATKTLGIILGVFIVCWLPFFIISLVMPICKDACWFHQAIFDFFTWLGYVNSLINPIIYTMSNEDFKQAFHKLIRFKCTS
Briefly: Agonist activity at 5-HT1-like receptor: contraction of the saphenous vein of New Zealand White rabbits. Particulars: rabbit saphenous vein; from plots of percentage 5-HT (1 μM) response against concentration of agonist; read-out: EC50 (agonist potency, contraction of saphenous vein). As for the experimental part: The activity of test compounds as agonists of the 5-HT1 -like receptor was measured in terms of their ability to mediate contraction of the saphenous vein of New Zealand White rabbits, using the procedure described in Arch. Pharm., 1990, 342, 111. Agonist potencies were calculated as EC50 values, from plots of percentage 5-HT (1 μM) response against the concentration of the agonist.

A word on the EC50: it is the midpoint of the concentration-response curve.

On to `c1cc2[nH]cc(CCCN3CCNCC3)c2cc1-n1cnnc1` [Example 4, 1-(3-[5-(1,2,4-Triazol-4-yl)-1H-indol-3-yl]propyl)-4-(H)-piperazine. 3.5 Hydrogen Oxalate], for which the EC50 is < 5 µM. On to `CN1CCN(CCCc2c[nH]c3ccc(-n4cnnc4)cc23)CC1` [Example 5, 1-(3-[5-(1,2,4-Triazol-4-yl)-1H-indol-3-yl]propyl)-4-(methyl)piperazine. 3.5 Hydrogen Oxalate Monohydrate], for which the half-maximal effective concentration (EC50) was < 5 µM.
